# Read-outs that look alike come from different tables or passages of the source.
# Columns and labels:
# [1] = Pharmacokinetics of combined dosage form: randomized, open, 3-way crossover study; assay type: in vivo; conditions: human, fasting; for half-life / Tmax: median (range)
# Procedure: The effects of palonosetron on the pharmacokinetics (PK) of netupitant and the effects of netupitant on the PK of palonosetron were examined in healthy volunteers. A randomized, open, 3-way crossover study was conducted. Each subject participated in 3 treatment periods, each lasting approximately 12 days (Day −1 to Day 11). The treatment periods were separated by wash-out periods of no less than 14 days (between Day 1 of any 2 consecutive treatment periods). Treatment A: oral netupitant 450 mg. administered as single dose of three 150 mg. capsules. Treatment B: oral palonosetron 0.75 mg. and oral netupitant 450 mg. administered simultaneously as three capsules of 150 mg. netupitant followed by 1 capsule of 0.75 mg. palonosetron. Treatment C: oral palonosetron 0.75 mg. administered as single dose as one 0.75 mg. capsule. Doses were administered under fasting conditions. Subjects fasted over-night for approximately 10 hours. Water, however, was permitted up to 1 hour pre-dose. Food intake was permitted 4 hours post-dose, and water was allowed ad libitum 1 hour post-dose. Doses were administered with the subject in an upright position. The subjects remained in an upright position for 4 hours post-dose. The capsules were swallowed whole with 250 mL of room-temperature tap water. Repeated PK blood sampling (for netupitant and/or palonosetron) was performed. The primary PK variables assessed for netupitant and palonosetron were the maximum plasma concentration observed (Cmax), the area under the plasma concentration versus time curve from time zero to the last quantifiable sampling time point (t) (AUC0-t), and the area under the plasma concentration versus time curve from time zero to infinity (AUC0-inf). The secondary PK variables assessed were the terminal elimination half-life (t1/2, z), and the time at which the maximum plasma concentration was observed (tmax). Results are depicted in below Tables 3 and 4, as well as FIGS. 2 and 3.
# [2] = tested on: highly emetogenic chemotherapy (HEC)-induced nausea and vomiting; test: Phase 2 clinical efficacy study, netupitant + palonosetron + dexamethasone; assay type: in vivo, human; parameters: Total Control, Overall: percent of patients / Total Control, Acute: percent of patients / Total Control, Delayed: percent of patients / Complete Protection, Overall: percent of patients / Complete Protection, Acute: percent of patients / Complete Protection, Delayed: percent of patients: concentration or dose not given beside the values; conditions: MFAS
# Source text: A phase 2 trial evaluated three single doses of netupitant combined with palonosetron and dexamethasone compared to palonosetron alone and dexamethasone to obtain dose ranging information for netupitant used with oral palonosetron in the CINV patient population.
# The objective of the study was to compare the efficacy and safety of three single oral doses of netupitant combined with oral palonosetron and given with dexamethasone, versus oral palonosetron-alone given with dexamethasone (without netupitant) for the prevention of highly emetogenic chemotherapy (HEC)-induced nausea and vomiting. The FDA-approved oral aprepitant regimen given with IV ondansetron and dexamethasone was included in the study as an active comparator for exploratory purposes. The FDA-approved oral palonosetron 0.5 mg. dose was used in each applicable treatment group in this study.
# This was a multicenter, randomized, double-blind, double-dummy, parallel group, stratified study. Eligible patients were randomized (stratified by gender) to one of the following treatment groups: • Group 1—0.5 mg. oral palonosetron on Day 1 (with an oral dexamethasone standard regimen: 20 mg. on Day 1 and 8 mg. BID from Day 2 through Day 4) • Group 2—100 mg. oral netupitant plus 0.5 mg. oral palonosetron on Day 1 (with an oral dexamethasone adjusted regimen*: 12 mg. on Day 1 and 8 mg. daily from Day 2 through Day 4) • Group 3—200 mg. oral netupitant plus 0.5 mg. oral palonosetron on Day 1 (with an oral dexamethasone adjusted regimen*: 12 mg. on Day 1 and 8 mg. daily from Day 2 to Day 4) • Group 4—300 mg. oral netupitant plus 0.5 mg. oral palonosetron on Day 1 (with dexamethasone adjusted regimen*: 12 mg. on Day 1 and 8 mg. daily from Day 2 to Day 4) • Group 5—125 mg. oral aprepitant plus IV ondansetron 32 mg. (both on Day 1) then 80 mg. oral aprepitant on Day 2 and Day 3, (all with an oral dexamethasone adjusted regimen: 12 mg. on Day 1 and 8 mg. daily from Day 2 through Day 4)
# The primary efficacy endpoint was the complete response rate (defined as no emetic episodes, no rescue medication) within 120 hours after the start of the highly emetogenic chemotherapy administration. Secondary efficacy endpoints were: • Complete response for the 0-24 hour interval (acute phase); and for the 25-120 hour interval (delayed phase); • Complete protection (defined as no emesis, no rescue therapy, no significant nausea); Total control (defined as no emesis, no rescue therapy and no nausea); No nausea (maximum VAS<5 mm); No significant nausea (maximum VAS<25 mm); No rescue medication; No emesis. These endpoints were evaluated for the 0-120 hour interval (overall), acute and delayed phase. • Time to first emetic episode, Time to first rescue medication, Time to treatment failure (based on time to the first emetic episode or time to the first rescue medication, whichever occurs first); • Severity of nausea for the overall, acute and delayed phase; ● Patient global satisfaction with anti-emetic therapy by means of VAS for each 24 hour interval.
# [3] = target: T1, NK1 receptors in human brain (Homo sapiens, UniProt P25103); test: Netupitant PET receptor occupancy study (11C-GR205171 tracer); assay type: in vivo; conditions: for mean NK1-RO: 96 hours post dose
# T1 construct: 6 healthy male volunteers (2 per dose level) receiving single doses of netupitant; from tissue; host or cells: brain of healthy male human volunteers, in vivo
# T1 sequence (P25103 whole entry): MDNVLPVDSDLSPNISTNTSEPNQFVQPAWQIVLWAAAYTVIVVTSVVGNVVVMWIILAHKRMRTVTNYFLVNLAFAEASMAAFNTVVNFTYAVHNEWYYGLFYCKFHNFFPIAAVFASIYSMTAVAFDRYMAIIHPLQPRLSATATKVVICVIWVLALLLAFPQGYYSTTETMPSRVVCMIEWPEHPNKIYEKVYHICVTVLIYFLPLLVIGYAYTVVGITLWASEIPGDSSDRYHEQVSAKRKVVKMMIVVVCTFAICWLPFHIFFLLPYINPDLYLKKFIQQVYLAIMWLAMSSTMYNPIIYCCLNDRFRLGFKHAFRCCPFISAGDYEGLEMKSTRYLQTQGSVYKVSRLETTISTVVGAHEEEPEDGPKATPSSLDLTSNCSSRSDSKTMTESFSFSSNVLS
# Procedure: This was a randomized, open-label, positron emission tomography (PET) study using 11C-GR205171 as tracer in 6 healthy male volunteers (2 per dose level) receiving single doses of netupitant (100, 300 or 450 mg) to investigate the degree of occupancy of NK1 receptors in human brain, and to determine the relationship between plasma concentration of netupitant and NK1 receptor occupancy (RO).
# [4] = Netupitant + dexamethasone drug interaction study; assay type: in vivo, human
# Procedure: The effect of netupitant on orally administered dexamethasone pharmacokinetics was evaluated in this study. This was a randomized, open, 3-period crossover study utilizing an incomplete Latin Square design where subjects were given dexamethasone alone, or oral Netupitant 100 mg., 300 mg. or 450 mg. each given with dexamethasone. Netupitant was given orally on Day 1 only. The dexamethasone regimen for each treatment was 20 mg. orally Day 1, followed by 8 mg. orally every 12 hours from Day 2 through Day 4. Nineteen subjects (12 male and 7 female) completed the study (i.e., all 3 treatment periods).
# [5] = 0-24 h, Group 1 (Palo alone) / Group 5 (Aprepitant Regimen)
# [6] = 0-120 h, Group 1 (Palo alone) / Group 5 (Aprepitant Regimen)
# [7] = 25-120 h, Group 1 (Palo alone) / Group 5 (Aprepitant Regimen)
# [8] = HEC (cisplatin) patients, Group 1 (Palo alone) / Group 5 (Aprepitant Regimen)
# [9] = co-administration of 100 mg netupitant (oral, Day 1) vs dexamethasone alone
# [10] = co-administration of 300 mg netupitant (oral, Day 1) vs dexamethasone alone
# [11] = co-administration of 450 mg netupitant (oral, Day 1) vs dexamethasone alone
structure (smiles),measurement,setting,value
"Cc1ccccc1-c1cc(N2CCN(C)CC2)ncc1N(C)C(=O)C(C)(C)c1cc(C(F)(F)F)cc(C(F)(F)F)c1 [Netupitant, 2-[3,5-bis(trifluoromethyl)phenyl]-N,2-dimethyl-N-[4-(2-methylphenyl)-6-(4-methylpiperazin-1-yl)pyridin-3-yl]propanamide]",Cmax,"[1]; plasma netupitant, oral netupitant 450 mg single dose, mean (SD)",650 ng/mL
same,AUC(0-t),"[1]; plasma netupitant, oral netupitant 450 mg single dose, mean (SD), read-out: Netupitant AUC0-t",22800 ng·h/mL
same,AUC,"[1]; plasma netupitant, oral netupitant 450 mg single dose, mean (SD), read-out: Netupitant AUCo-inf",25900 ng·h/mL
same,half-life,"[1]; plasma netupitant, oral netupitant 450 mg single dose, read-out: Netupitant t1/2, z (converted)",71.8 h
same,Tmax,"[1]; plasma netupitant, oral netupitant 450 mg single dose, read-out: Netupitant tmax",4.5 h
same,"No Emesis, Overall: percent of patients","[2]; 0-120 h, netupitant 100 mg + palonosetron 0.5 mg oral Day 1, with dexamethasone",87.4%
same,"No Emesis, Overall: percent of patients","[2]; 0-120 h, netupitant 200 mg + palonosetron 0.5 mg oral Day 1, with dexamethasone",87.6%
same,"No Emesis, Overall: percent of patients","[2]; 0-120 h, netupitant 300 mg + palonosetron 0.5 mg oral Day 1, with dexamethasone",91.1%
same,"CR, Overall Phase, 0-120 h: Percent of Patients","[2]; HEC (cisplatin) patients, netupitant 100 mg + palonosetron 0.5 mg oral Day 1, with dexamethasone",87.4%
same,"CR, Overall Phase, 0-120 h: Percent of Patients","[2]; HEC (cisplatin) patients, netupitant 200 mg + palonosetron 0.5 mg oral Day 1, with dexamethasone",87.6%
same,"CR, Overall Phase, 0-120 h: Percent of Patients","[2]; HEC (cisplatin) patients, netupitant 300 mg + palonosetron 0.5 mg oral Day 1, with dexamethasone",89.6%
same,mean NK1-RO,"[3]; 100 mg dose group, 4 of 6 regions",over 70%
same,mean NK1-RO,"[3]; 450 mg dose group, 5 of 6 regions",≥ 80%
same,NK1 receptor occupancy (NK1-RO),"[3]; 6 hours post dose, striatum, occipital cortex, frontal cortex and anterior cingulate, reached in 3 of 6 subjects (1 at 300 mg, 2 at 450 mg single oral dose)",≥ 90%
"Cl.O=C1c2cccc3c2[C@H](CCC3)CN1[C@@H]1CN2CCC1CC2 [Palonosetron, (3aS)-2-[(S)-1-Azabicyclo[2.2.2]oct-3-yl]-2,3,3a,4,5,6-hexahydro-1-oxo-1Hberiz[de]isoquinoline hydrochloride]",half-life,"[1]; plasma palonosetron, oral palonosetron 0.75 mg single dose, read-out: Palonosetron t1/2, z (converted)",34.7 h
same,Tmax,"[1]; plasma palonosetron, oral palonosetron 0.75 mg single dose, read-out: Palonosetron tmax",5.02 h
same,"Complete Protection, Acute: percent of patients",[2]; [5],87.5%
same,"No Emesis, Acute: percent of patients",[2]; [5],89.7%
same,"No Rescue, Acute: percent of patients",[2]; [5],97.8%
same,"Total Control, Acute: percent of patients",[2]; [5],71.3%
same,"No Emesis, Overall: percent of patients",[2]; [6],76.5%
same,"No Rescue, Overall: percent of patients",[2]; [6],95.6%
same,"Complete Protection, Delayed: percent of patients",[2]; [7],73.5%
same,"No Emesis, Delayed: percent of patients",[2]; [7],80.1%
same,"No Rescue, Delayed: percent of patients",[2]; [7],97.1%
same,"Total Control, Delayed: percent of patients",[2]; [7],52.2%
same,"CR, Acute Phase, −24 h: Percent of Patients",[2]; [8],89.7%
same,"CR, Delayed Phase, 25-120 h: Percent of Patients",[2]; [8],80.1%
same,"CR, Overall Phase, 0-120 h: Percent of Patients",[2]; [8],76.5%
same,"No Nausea, Acute: percent of patients","[2]; maximum VAS<5 mm, 0-24 h, Group 1 (Palo alone) / Group 5 (Aprepitant Regimen)",75.0%
same,"No Nausea, Overall: percent of patients","[2]; maximum VAS<5 mm, 0-120 h, Group 1 (Palo alone) / Group 5 (Aprepitant Regimen)",50.7%
same,"No Nausea, Delayed: percent of patients","[2]; maximum VAS<5 mm, 25-120 h, Group 1 (Palo alone) / Group 5 (Aprepitant Regimen)",53.7%
same,"No Significant Nauea, Acute: percent of patients","[2]; maximum VAS<25 mm, 0-24 h, Group 1 (Palo alone) / Group 5 (Aprepitant Regimen)",93.4%
same,"No Significant Nauea, Overall: percent of patients","[2]; maximum VAS<25 mm, 0-120 h, Group 1 (Palo alone) / Group 5 (Aprepitant Regimen)",79.4%
same,"No Significant Nauea, Delayed: percent of patients","[2]; maximum VAS<25 mm, 25-120 h, Group 1 (Palo alone) / Group 5 (Aprepitant Regimen)",80.9%
same,"Total Control, Overall: percent of patients","[2]; no emesis, no rescue therapy and no nausea, 0-120 h, Group 1 (Palo alone) / Group 5 (Aprepitant Regimen)",50.0%
same,"Complete Protection, Overall: percent of patients","[2]; no emesis, no rescue therapy, no significant nausea, 0-120 h, Group 1 (Palo alone) / Group 5 (Aprepitant Regimen)",69.9%
C[C@@H]1C[C@H]2[C@@H]3CCC4=CC(=O)C=C[C@]4(C)[C@@]3(F)[C@@H](O)C[C@]2(C)[C@@]1(O)C(=O)CO [dexamethasone],"Dexamethasone Cmin on Days 2-4, fold increase",[4]; co-administration of 100 mg netupitant,approximately 2.8 fold
same,"AUC0-24 (Day 1) of dexamethasone, fold increase",[4]; [9],1.5 fold
same,"AUC24-36 (Day 2) of dexamethasone, fold increase",[4]; [9],2.1 fold
same,"AUC84-108 and AUC84-inf (Day 4) of dexamethasone, fold increase",[4]; [9],1.7 fold
same,"Dexamethasone Cmin on Days 2-4, fold increase",[4]; co-administration of 300 mg netupitant,~4.3 fold
same,"AUC0-24 (Day 1) of dexamethasone, fold increase",[4]; [10],1.7 fold
same,"AUC24-36 (Day 2) of dexamethasone, fold increase",[4]; [10],2.4 fold
same,"AUC84-108 and AUC84-inf (Day 4) of dexamethasone, fold increase",[4]; [10],2.4 fold
same,"Dexamethasone Cmin on Days 2-4, fold increase",[4]; co-administration of 450 mg netupitant,~4.6 fold
same,"AUC0-24 (Day 1) of dexamethasone, fold increase",[4]; [11],1.8 fold
same,"AUC24-36 (Day 2) of dexamethasone, fold increase",[4]; [11],2.6 fold
same,"AUC84-108 and AUC84-inf (Day 4) of dexamethasone, fold increase",[4]; [11],2.7 fold
same,"Dexamethasone Cmax on Day 1, fold increase",[4]; co-administration with 100 mg netupitant,1.1 fold
same,"Dexamethasone Cmax on Day 1, fold increase",[4]; co-administration with 300 mg netupitant,1.1 fold
same,"Dexamethasone Cmax on Day 1, fold increase",[4]; co-administration with 450 mg netupitant,1.2 fold
same,"Dexamethasone Cmax on Day 2 and Day 4, fold increase","[4]; subjects administered netupitant (100, 300 or 450 mg)",approximately 1.7 fold

# Reference: patent US8951969B2, “Compositions and methods for treating centrally mediated nausea and vomiting” (Helsinn Healthcare S.A., priority 2009, dated 2015)
